Patent US9211310B2, “Use of a Chinese medicine composition in preparing medicaments for treating secondary prevention of myocardial infarction” (TASLY PHARMACEUTICAL GROUP CO., LTD, priority 2010, dated 2015)

Test system: patients after acute myocardial infarction
Experiment: TCM symptom score, total and single (chest pain, chest tightness, short breath, fatigue, palpitation, spontaneous perspiration, pale complexion), same clinical trial
Assay type: in vivo, human
Set-up: total score of TCM symptom, Mean / total score of TCM symptom, Min / total score of TCM symptom, Max / total score of TCM symptom, Md / change of total score of TCM symptom, Mean / change of total score of TCM symptom, Max / change of total score of TCM symptom, Md: scale not given here
Details: FAS
Description: 3508 patients who were in accordance with the diagnostic standards of AMI for 28 days to 2 years and differentiated as Qi deficiency and blood stagnation syndrome by TCM were studied. 0.5 g Chinese medicine composition prepared by the method of EXAMPLE 1 (Coded as QSYQ) was administrated half an hour after meal, 3 times per day.
They included the overall survival time, angina pectoris score, TCM symptom score and life quality score, where angina pectoris score, TCM symptom score and life quality score were evaluated at randomization, in 1st, 3rd, 6th, 9th, 12th month after treatment and 18th month after follow-up.
The analysis method referred to the angina pectoris score.

[1] = 1 month after treatment-baseline
[2] = 3 month after treatment-baseline

Which results are given for CC(=O)Oc1ccccc1C(=O)O [Control group, aspirine]?
total score of TCM symptom, Max (1 month after treatment): 34.00; total score of TCM symptom, Md (1 month after treatment): 11.00; total score of TCM symptom, Mean (1 month after treatment): 11.84; total score of TCM symptom, Min (1 month after treatment): 0.00; change of fatigue 0, % of patients [1]: (72.40%); change of fatigue 0, number of patients [1]: 1238; change of fatigue 1, % of patients [1]: (0.06%); change of fatigue 1, number of patients [1]: 1; change of fatigue 2, % of patients [1]: (17.72%); change of fatigue 2, number of patients [1]: 303; change of fatigue 4, % of patients [1]: (2.63%); change of fatigue 4, number of patients [1]: 45; change of fatigue 6, % of patients [1]: (0.76%); change of fatigue 6, number of patients [1]: 13; change of fatigue −2, % of patients [1]: (5.73%); change of fatigue −2, number of patients [1]: 98; change of fatigue −4, % of patients [1]: (0.64%); change of fatigue −4, number of patients [1]: 11; change of fatigue −6, % of patients [1]: (0.06%); change of fatigue −6, number of patients [1]: 1; change of pale complexion 0, number of patients [1]: 1477; change of pale complexion 0, percent of patients [1]: (86.48%); change of pale complexion 1, number of patients [1]: 166; change of pale complexion 1, percent of patients [1]: (9.72%); change of pale complexion −1, number of patients [1]: 65; change of pale complexion −1, percent of patients [1]: (3.81%); change of palpitation 0, number of patients [1]: 1242; change of palpitation 0, percent of patients [1]: (72.63%); change of palpitation 1, number of patients [1]: 334; change of palpitation 1, percent of patients [1]: (19.53%); change of palpitation 2, number of patients [1]: 25; change of palpitation 2, percent of patients [1]: (1.46%); change of palpitation 3, number of patients [1]: 5; change of palpitation 3, percent of patients [1]: (0.29%); change of palpitation −1, number of patients [1]: 103; change of palpitation −1, percent of patients [1]: (6.02%); change of palpitation −2, number of patients [1]: 1; change of palpitation −2, percent of patients [1]: (0.06%); change of palpitation −3, number of patients [1]: 0; change of palpitation −3, percent of patients [1]: (0.00%); change of short breath 0, % of patients [1]: (77.37%); change of short breath 0, number of patients [1]: 1323; change of short breath 2, % of patients [1]: (14.74%); change of short breath 2, number of patients [1]: 252; change of short breath 4, % of patients [1]: (1.75%); change of short breath 4, number of patients [1]: 30; change of short breath 6, % of patients [1]: (0.41%); change of short breath 6, number of patients [1]: 7; change of short breath −2, % of patients [1]: (5.26%); change of short breath −2, number of patients [1]: 90; change of short breath −4, % of patients [1]: (0.47%); change of short breath −4, number of patients [1]: 8; change of short breath −6, % of patients [1]: (0.00%); change of short breath −6, number of patients [1]: 0; change of spontaneous perspiration 0, number of patients [1]: 1249; change of spontaneous perspiration 0, percent of patients [1]: (73.08%); change of spontaneous perspiration 1, number of patients [1]: 279; change of spontaneous perspiration 1, percent of patients [1]: (16.33%); change of spontaneous perspiration 2, number of patients [1]: 51; change of spontaneous perspiration 2, percent of patients [1]: (2.98%); change of spontaneous perspiration 3, number of patients [1]: 16; change of spontaneous perspiration 3, percent of patients [1]: (0.94%); change of spontaneous perspiration −1, number of patients [1]: 94; change of spontaneous perspiration −1, percent of patients [1]: (5.50%); change of spontaneous perspiration −2, number of patients [1]: 17; change of spontaneous perspiration −2, percent of patients [1]: (0.99%); change of spontaneous perspiration −3, number of patients [1]: 3; change of spontaneous perspiration −3, percent of patients [1]: (0.18%); change of total score of TCM symptom, Max [1]: 24.00; change of total score of TCM symptom, Md [1]: 0.00; change of total score of TCM symptom, Mean [1]: −1.96; change of total score of TCM symptom, Min [1]: −33.00; change of total score of TCM symptom, Max [2]: 19.00; change of total score of TCM symptom, Md [2]: −2.00; change of total score of TCM symptom, Mean [2]: −2.91; change of total score of TCM symptom, Min [2]: −33.00; distribution of total score of TCM symptom: Medium, number of patients (3 months after treatment): 546; distribution of total score of TCM symptom: Medium, percentage of patients (3 months after treatment): (33.58%); distribution of total score of TCM symptom: Mild, number of patients (3 months after treatment): 1066; distribution of total score of TCM symptom: Mild, percentage of patients (3 months after treatment): (65.56%); distribution of total score of TCM symptom: Severe, number of patients (3 months after treatment): 14; distribution of total score of TCM symptom: Severe, percentage of patients (3 months after treatment): (0.86%); fatigue score 0, % of patients (3 months after treatment): (27.96%); fatigue score 0, number of patients (3 months after treatment): 480; fatigue score 2, % of patients (3 months after treatment): (59.76%); fatigue score 2, number of patients (3 months after treatment): 1026; fatigue score 4, % of patients (3 months after treatment): (11.47%); fatigue score 4, number of patients (3 months after treatment): 197; fatigue score 6, % of patients (3 months after treatment): (0.82%); fatigue score 6, number of patients (3 months after treatment): 14; pale complexion score 0, number of patients (3 months after treatment): 809; pale complexion score 0, percent of patients (3 months after treatment): (47.12%); pale complexion score 1, number of patients (3 months after treatment): 677; pale complexion score 1, percent of patients (3 months after treatment): (39.43%); pale complexion score 2, number of patients (3 months after treatment): 210; pale complexion score 2, percent of patients (3 months after treatment): (12.23%); pale complexion score 3, number of patients (3 months after treatment): 21; pale complexion score 3, percent of patients (3 months after treatment): (1.22%); palpitation score 0, number of patients (3 months after treatment): 480; palpitation score 0, percent of patients (3 months after treatment): (27.96%); palpitation score 2, number of patients (3 months after treatment): 894; palpitation score 2, percent of patients (3 months after treatment): (52.07%); palpitation score 4, number of patients (3 months after treatment): 310; palpitation score 4, percent of patients (3 months after treatment): (18.05%); palpitation score 6, number of patients (3 months after treatment): 33; palpitation score 6, percent of patients (3 months after treatment): (1.92%); short breath score 0, % of patients (3 months after treatment): (21.78%); short breath score 0, number of patients (3 months after treatment): 374; short breath score 3, % of patients (3 months after treatment): (58.94%); short breath score 3, number of patients (3 months after treatment): 1012; short breath score 6, % of patients (3 months after treatment): (18.52%); short breath score 6, number of patients (3 months after treatment): 318; short breath score 9, % of patients (3 months after treatment): (0.76%); short breath score 9, number of patients (3 months after treatment): 13; spontaneous perspiration score 0, number of patients (3 months after treatment): 667; spontaneous perspiration score 0, percent of patients (3 months after treatment): (38.85%); spontaneous perspiration score 1, number of patients (3 months after treatment): 846; spontaneous perspiration score 1, percent of patients (3 months after treatment): (49.27%); spontaneous perspiration score 2, number of patients (3 months after treatment): 190; spontaneous perspiration score 2, percent of patients (3 months after treatment): (11.07%); spontaneous perspiration score 3, number of patients (3 months after treatment): 14; spontaneous perspiration score 3, percent of patients (3 months after treatment): (0.82%); total score of TCM symptom, Max (3 months after treatment): 33.00
